Assay results: ChEMBL document CHEMBL5108066, “Structure-Guided Discovery of Potent Antifungals that Prevent Ras Signaling by Inhibiting Protein Farnesyltransferase” (J Med Chem, 2022)
≈ marks a conversion by molar mass, not a printed value. Calls of active or inactive are those of the source. No cut-off for these calls is given here.

Legend:
Cryptococcus neoformans [1] = assay: Antifungal activity against Cryptococcus neoformans H99 assessed as decrease in cell viability by measuring metabolic activity incubated for 72 hrs by alamar blue staining based broth dilution method; assay type: functional
[2] = Inhibition of Cryptococcus neoformans farnesyltransferase assessed as inhibition of farnesylation of dansyl-GCVVM peptide using fluorescent peptide dansyl-GCVVM and 1uM farnesyl diphosphate as substrate by fluorescence assay
[3] = Cytotoxicity against mouse J774.A1 cells assessed as inhibition of cell viability measured at 24 hrs by AlamarBlue staining based cell viability assay; assay type: toxicity; conditions: read-out: MIC
[4] = Inhibition of rat farnesyltransferase assessed as inhibition of farnesylation of dansyl-GCVVM peptide using fluorescent peptide dansyl-GCVVM and 1uM farnesyl diphosphate as substrate by fluorescence assay
Cryptococcus neoformans [5] = assay: Uncompetitive type inhibition of Cryptococcus neoformans farnesyltransferase assessed as inhibition constant using farnesyl diphosphate and fluorescent peptide dansyl-GCVVM as substrate by steady-state kinetic analysis
[6] = tested on: Schizosaccharomyces pombe; assay: Antifungal activity against Schizosaccharomyces pombe efflux-defective strain MJ-1682 assessed as inhibition of fungal growth by broth microdilution method; assay type: functional
Cryptococcus neoformans [7] = assay: Fungicidal activity against Cryptococcus neoformans H99 assessed as reduction in colonies incubated for 48 hrs by disk diffusion method; assay type: functional, organism-based
Cryptococcus neoformans [8] = assay: Inhibition of biofilm formation in Cryptococcus neoformans H99 incubated for 3 days by alamar blue staining based microtiter plate reader assay; assay type: functional; conditions: H99, 72 h, time 3 day
Cryptococcus neoformans [9] = assay: Uncompetitive type inhibition of Cryptococcus neoformans farnesyltransferase assessed as inhibition constant using FPP in presence of 10 mM phosphate and fluorescent peptide dansyl-GCVVM as substrate by steady-state kinetic analysis

Compound | MIC (Cryptococcus neoformans [1]) [µM] | IC50 [2] [nM] | also measured
CCCC[C@H]1CN(c2cccc(OC(F)(F)F)c2)C(=O)CN1Cc1cncn1Cc1ccccc1 | 25 (≈ 12.2 µg/mL) | 1900 | 
CCCC[C@H]1CN(c2cccc(OC(F)(F)F)c2)C(=O)CN1Cc1cncn1Cc1ccc(Cl)cc1 | 6 (≈ 3.13 µg/mL) | 260 | 
CCCC[C@H]1CN(c2cccc(C)c2C)C(=O)CN1Cc1cncn1Cc1ccc(C#N)cc1 | 50 (≈ 22.8 µg/mL) | 2200 | 
CCCC[C@H]1CN(c2cccc(OC(F)(F)F)c2)C(=O)CN1Cc1cncn1Cc1ccc(C#N)c(Oc2ccccc2)c1 | 50 (≈ 30.2 µg/mL) | 150 | 
N#Cc1ccc(Cn2cncc2CN2CCN(c3cccc(OC(F)(F)F)c3)C(=O)C2)cc1Oc1ccccc1 | 50 (≈ 27.4 µg/mL) | 2600 | 
CCCC[C@H]1CN(c2cccc(OC(F)(F)F)c2)C(=O)CN1Cc1cncn1Cc1ccc(Oc2ccccc2)c(C#N)c1 | 50 (≈ 30.2 µg/mL) | 210 | 
CCCC[C@H]1CN(c2cccc(Cl)c2)C(=O)CN1Cc1cncn1Cc1ccc(Cl)cc1 | 25 (≈ 11.8 µg/mL) | 1600 | 
CCCC[C@H]1CN(c2cccc(OC(F)(F)F)c2)C(=O)CN1Cc1cncn1Cc1ccc(Br)cc1 | 3 (≈ 1.7 µg/mL) | 190 | MCC at 24 h [3]: 300 µM; IC50 [4]: 2 nM; K (Cryptococcus neoformans [5]): 750 nM; MIC [6]: 1.5 µM (≈ 0.848 µg/mL); Activity (Cryptococcus neoformans [7]): Active; MIC (Cryptococcus neoformans [8]): 12.5 µM (≈ 7.07 µg/mL); K (Cryptococcus neoformans [9]): 500 nM
CCCC[C@H]1CN(c2cccc(OC(F)(F)F)c2)C(=O)CN1Cc1cncn1Cc1ccc(C#N)c(F)c1 | 50 (≈ 26.5 µg/mL) | 40 | K (Cryptococcus neoformans [5]): 4.9 nM; K (Cryptococcus neoformans [9]): 4.2 nM
CCCC[C@H]1CN(c2cccc(Cl)c2)C(=O)CN1Cc1cncn1Cc1ccc(C#N)cc1 | 50 (≈ 23.1 µg/mL) | 100 | 
CCCC[C@H]1CN(c2cccc(Cl)c2)C(=O)CN1Cc1cncn1Cc1ccc(Br)cc1 | 12 (≈ 6.19 µg/mL) | 1100 | 
CCCC[C@H]1CN(c2cccc(OC(F)(F)F)c2)C(=O)CN1Cc1cncn1Cc1ccc(F)cc1 | 12 (≈ 6.05 µg/mL) | 710 | 
N#Cc1cc(Cn2cncc2CN2CCN(c3cccc(OC(F)(F)F)c3)C(=O)C2)ccc1F | 50 (≈ 23.7 µg/mL) | 550 | 
N#Cc1ccc(Cn2cncc2CN2CCN(c3cccc(Cl)c3)C(=O)C2)cc1 [L-778123 FREE BASE] | 100 (≈ 40.6 µg/mL) |  | IC50 [4]: 60 nM
CCCC[C@H]1CN(c2cccc(OC(F)(F)F)c2)C(=O)CN1Cc1cncn1Cc1ccc(C#N)cc1 | 12 (≈ 6.14 µg/mL) | 340 | 
CCCC[C@H]1CN(c2ccccc2)C(=O)CN1Cc1cncn1Cc1ccc(Br)cc1 | 50 (≈ 24.1 µg/mL) | 920 | 
N#Cc1ccc(Cn2cncc2CN2CCN(c3cccc(OC(F)(F)F)c3)C(=O)C2)cc1 | 50 (≈ 22.8 µg/mL) | 2700 | 
N#Cc1ccc(Cn2cncc2CN2CCN(c3cccc(OC(F)(F)F)c3)C(=O)C2)cc1F | 50 (≈ 23.7 µg/mL) | 120 | 
CCCC[C@H]1CN(c2cccc(OC(F)(F)F)c2)C(=O)CN1Cc1cncn1Cc1ccc(F)c(C#N)c1 | 50 (≈ 26.5 µg/mL) | 180 | 
CCCC[C@H]1CN(c2cccc(OC(F)(F)F)c2)C(=O)CN1Cc1cncn1Cc1cccc(C#N)c1 | 50 (≈ 25.6 µg/mL) | 740 | 
CCC[C@H]1CN(c2cccc(OC(F)(F)F)c2)C(=O)CN1Cc1cncn1Cc1ccc(Br)cc1 | 6 (≈ 3.31 µg/mL) | 1100 | 
CCCC[C@H]1CN(c2cccc(OC(F)(F)F)c2)C(=O)CN1Cc1cncn1Cc1ccc(C(F)(F)F)cc1 | 6 (≈ 3.33 µg/mL) | 280 | 
N#Cc1cc(Cn2cncc2CN2CCN(c3cccc(OC(F)(F)F)c3)C(=O)C2)ccc1Oc1ccccc1 | 50 (≈ 27.4 µg/mL) | 320 | 
CCCCC[C@H]1CN(c2cccc(OC(F)(F)F)c2)C(=O)CN1Cc1cncn1Cc1ccc(Br)cc1 | 3 (≈ 1.74 µg/mL) | 160 | 
